How the values were obtained:
[1] = Noncompartmental PK of rutin after oral administration of pure rutin or P. peruviana extract; format: in vivo, New Zealand White rabbits
Method: (§1) Twenty male New Zealand White rabbits were obtained from Sentagro E.A.T (Cachipay, Cundinamarca, Colombia), who certificated their origin and traceability. The animals were between 9 and 10 weeks old, weighing between 1.8 and 2.2 kg. They were allowed to acclimate for at least 5 days under constant temperature conditions (22 ± 1 °C), with light/dark cycles of 12 h, at the animal facility of the Department of Pharmacy of the Universidad Nacional de Colombia (UNAL), where the experiments were conducted. They were provided with water and food ad libitum until 12 h prior to the experiment, when they were fasted. The study protocol was approved by the ethics committee of the science faculty of the UNAL (Act 06, 2015, project 40831, 22 June 2015).
(§2) Rabbits were divided into four groups to receive either pure rutin or P. peruviana extract intravenously (i.v.) or orally (p.o.). The dose of rutin i.v. was set at 0.37 mg/kg, based on the highest quantity of the compound able to dissolve in 1 mL of the diluent used. The dose of extract i.v. was 100 mg/kg, a reference dose for animal experimentation in our group, which also allowed the solubilization of rutin in the extract within the administration volume. Oral rutin was administrated at a dose of 100 mg/kg, and oral extract was administrated at a dose of 500 mg/kg, which is an active dose from prior experiments. Based on the rutin content in the extract, the doses of extract used were equivalent to 1.48 mg/kg and 7.4 mg/kg of rutin for the i.v. and p.o. experiments, respectively.
(§3) For intravenous administration, solutions of rutin in sodium chloride solution (0.9% NaCl) were prepared at a concentration of 0.74 mg/mL, using DMSO (<0.1% of the final volume) to dissolve the compound. Meanwhile, the extract was directly dissolved in 0.9% NaCl at a concentration of 200 mg/mL. For oral administration, pure rutin and the extract were suspended in water near the time of the experiment to achieve concentrations in suspension of 200 and 1000 mg/mL, respectively. Vortexing and sonication were applied 3–4 times for 15 min each to all preparations. Each animal received 0.5 mL/kg of the treatment via the marginal ear vein (i.v.) or by oral gavage (p.o.).
(§4) Samples of blood (approximately 250 µL) were withdrawn from the marginal ear vein and collected in heparinized tubes at various time points. For experiments with i.v. administration, sampling was conducted at times 0, 0.083, 0.166, 0.333, 0.5, 0.75, 1, 1.5, 2, 3, 4, 6, 8, 12, and 24 h. For experiments with p.o. administration, sampling was performed at times 0, 0.083, 0.25, […], 0.75, 1, 2, 3, 4, 6, 8, 12, 24, and 48 h (Figure 1). The blood samples were then centrifuged at 3200× g and at 4 °C for 15 min to separate plasma, which was transferred to a new tube. The plasma was promptly acidified to pH 4 using 0.5 µL of 42.5% formic acid and then frozen at −80 °C until further analysis.
(§5) The quantification of analytes was carried out using a validated UHPLC-UV method on a Chromaster RS chromatograph (Hitachi, Tokyo, Japan). Briefly, plasma samples (100 µL) were supplemented with the internal standard, chrysin (1000 ng/mL), and divided into two tubes. One tube was immediately extracted and injected into the chromatographic system to quantify rutin. The plasma in the other tube first underwent a deconjugation reaction with 120 Fishman units of a mixture of the enzymes β-glucuronidase/arylsulfatase at pH 5.5 and 37 °C for 30 min. The product of the reaction, Quer, was also quantified, representing rutin metabolites Q3OG and Q3OS. The analytes in the plasma samples, rutin and Quer, were extracted using the protein precipitation method with twice the volume of methanol; proteins were then separated by centrifugation at 1200× g and 4 °C for 15 min, and the supernatant was used for instrumental analysis.
(§6) Concentrations–time data were tabulated and processed using MonolixSuite™ 2024R1 (Lixoft®, Paris, France). […]

[2] = design: method as in PMID 32162346; settings: low solubility and low permeability; cited from earlier work
[3] = design: method as in PMID 33921404; settings: rutin; popPK, Wistar rats; cited from earlier work
[4] = Simple allometry prediction of human V and Cl of rutin; design: species or system humans
Source text: Individual pharmacokinetics parameters estimated by PopPK analysis in this study, along with those from a previous study conducted by the group in Wistar rats, were used to extrapolate V and Cl to humans using the simple allometry Equation (6):(6) Y=a×W^b, where Y is the PK parameter in humans, W is the human weight, typically set at 70 kg, and a and b are the coefficient and the exponent of scaling, respectively. These last two values are obtained from the relationship between the PK parameter and body weight across different species. Theoretically, b is fixed to 0.75 for Cl and 1.0 for Vd, although it can vary depending on the drug and population under study.

[5] = Population PK model of rutin after i.v. administration (two-compartment, first-order elimination); format: in vivo, New Zealand White rabbits
Method: PopPK analysis was performed using the Monolix® module of the MonolixSuite™. Two models were established, one for rutin after i.v. administration of the treatments, and one for Quer, produced by deconjugation of Q3OG and Q3OS, after p.o. administration of the treatments. Structural models with one or two compartments and first-order elimination were assessed, incorporating a double first-order absorption for p.o. experiments. An analysis of covariate was conducted, using the source of rutin as categorical covariate (pure compound or extract), which was incorporated into the model if statistically significant (p < 0.05 for Pearson’s and Wald tests with stochastic approximation). Correlations between random effects of the parameters were also examined and included in the model when significant (p < 0.05 for t-test). The final model, along with the residual error model, was chosen based on criteria including individual fit plots, Akaike’s information criteria (AIC) values, observation-versus-prediction plot analysis, precision of estimated parameters, and evaluation of residual distribution. The variability on fixed-effect model parameters was described by Equation (4):(4) Pi=Ppop+β+η(i,p), where Pi is the value of the individual PK parameter, Ppop is the value of the population PK parameter, β represents the variability due to the covariate extract if significant, and η is the individual deviation with respect to the population. Models were parametrized in micro-constants, i.e., elimination rate constant (k), distribution rate constant from compartment 1 to compartment 2 (k12), and distribution rate constant from compartment 2 to compartment 1 (k21). When necessary, Cl was calculated as follows: (5) Cl=k×V, where V is the volume of distribution of first compartment. The model was internally validated through the visual predictive check (VPC) with 1000 simulated data points. Validation of structural, variability, and covariate models was considered achieved if the observed percentiles remained within the corresponding prediction intervals estimated across all simulated data and computed with a level of 90%. In addition, the parameter uncertainty was assayed by bootstrap analysis using 1000 runs. The model was considered stable, robust, and accurate if the mean parameters of the model were close to those estimated via bootstrap and fell within the 95% confidence interval (CI 95%).

[6] = Noncompartmental PK of rutin after intravenous administration of pure rutin or P. peruviana extract; format: in vivo, New Zealand White rabbits
Method: as §1, §2, §3, §4, §5, §6

[7] = male, New Zealand White, rabbit, plasma, po, rutin, pure rutin 100 mg/kg, extract equivalent to 7.4 mg/kg of rutin, NCA, mean ± SD, n = 5
[8] = male, New Zealand White, rabbit, po, rutin in plasma, pure rutin 100 mg/kg, extract equivalent to 7.4 mg/kg of rutin, NCA, mean ± SD, n = 5
[9] = rutin, p.o., pure rutin 100 mg/kg, extract equivalent to 7.4 mg/kg of rutin, NCA, mean ± SD, n = 5
[10] = male, New Zealand White, rabbit, plasma, iv, rutin, pure rutin 0.37 mg/kg, extract equivalent to 1.48 mg/kg of rutin, NCA, mean ± SD, n = 5
[11] = rutin, i.v., pure rutin 0.37 mg/kg, extract equivalent to 1.48 mg/kg of rutin, NCA, mean ± SD, n = 5

C[C@@H]1O[C@@H](OC[C@H]2O[C@@H](Oc3c(-c4ccc(O)c(O)c4)oc4cc(O)cc(O)c4c3=O)[C@H](O)[C@@H](O)[C@@H]2O)[C@H](O)[C@H](O)[C@H]1O [Pure Rutin, quercetin-3-O-rutinoside]
bioavailability ([1]; male, New Zealand White, rabbit, plasma, po, p.o. vs i.v., pure rutin 100 mg/kg, extract equivalent to 7.4 mg/kg of rutin, read-out: F (absolute bioavailability of rutin)): 0.6% | Vd/F ([1]; male, New Zealand White, rabbit, plasma, po, rutin, p.o., pure rutin 100 mg/kg, extract equivalent to 7.4 mg/kg of rutin, NCA, mean ± SD, n = 5, read-out: Vz/F): 59.1 ± 11.4 L/kg | k el ([1]; male, New Zealand White, rabbit, plasma, po, rutin, p.o., pure rutin 100 mg/kg, extract equivalent to 7.4 mg/kg of rutin, NCA, mean ± SD, n = 5, read-out: λz (converted)): 6.5e-05 s⁻¹ | CL/F [1, 7]: 226 mL/min/kg | MRT [1, 7]: 11.8 ± 0.916 h | AUC(0-inf) [1, 8]: 7790 ± 2110 ng·h/mL | Cmax [1, 8]: 1170 ± 371 ng/mL | Tmax [1, 8]: 0.75 h | time of second peak of rutin plasma concentration (double peaks) ([1]; p.o., Cmax here for the extract): 4.0 h | time of first peak of rutin plasma concentration (double peaks) ([1]; p.o., Cmax here for the pure compound): 0.75 h | AUC0–∞/dose [1, 9]: 0.078 ± 0.021 h/L/kg | Cmax/dose [1, 9]: 0.012 ± 0.004 L⁻¹ kg⁻¹ | Biopharmaceutical Classification System class [2]: Class IV | Cl, rat parameter [3]: 0.031 L/h | V, rat parameter [3]: 0.024 L | V, human parameter (experimental b) ([4]; 70 kg, b exponent from the data): 1.410 L | Cl, human parameter (theoretical b) ([4]; 70 kg, theoretical b 0.75): 2.323 L/h | V, human parameter (theoretical b) ([4]; 70 kg, theoretical b 1.0): 3.988 L | Cl, a coefficient of allometric scaling ([4]; Y = a × W^b, rats and rabbits): 0.096 | Cl, b exponent of allometric scaling ([4]; Y = a × W^b, rats and rabbits): 0.9 | V, a coefficient of allometric scaling ([4]; Y = a × W^b, rats and rabbits): 0.057 | V, b exponent of allometric scaling ([4]; Y = a × W^b, rats and rabbits): 0.8 | clearance ([4]; human, 70 kg, b exponent from the data, read-out: Cl, human parameter (experimental b) (converted)): 89.8 mL/min | clearance ([5]; New Zealand White, rabbit, plasma, intravenous, 0.37 mg/kg, popPK individual parameters, Cl = k × V, per animal, read-out: Cl, rabbit parameter (converted)): 3.13 mL/min | k12 (distribution rate constant compartment 1 to 2), population value ([5]; i.v., popPK): 3.666 h⁻¹ | k21 (distribution rate constant compartment 2 to 1), population value ([5]; i.v., popPK, no extract covariate): 3.777 h⁻¹ | Vd ([5]; male, New Zealand White, rabbit, plasma, iv, popPK, read-out: V (volume of distribution of first compartment), population value): 0.048 L/kg | k el ([5]; male, New Zealand White, rabbit, plasma, iv, popPK, read-out: k (first-order elimination rate constant), population value (converted)): 0.000534 s⁻¹ | V, rabbit parameter ([5]; popPK individual parameters, per animal): 0.096 L | time post-dosage up to which rutin was quantified ([6]; i.v.): up to 6 h | rutin plasma level, upper end of quantified range ([6]; i.v., mean ± SEM): 4960 ± 340 ng/mL | AUC(0-inf) ([6]; male, New Zealand White, rabbit, iv, rutin in plasma, pure rutin 0.37 mg/kg, extract equivalent to 1.48 mg/kg of rutin, NCA, mean ± SD, n = 5): 4740 ± 814 ng·h/mL | Vd ([6]; male, New Zealand White, rabbit, plasma, iv, 0.37 mg/kg, rutin, i.v., pure rutin 0.37 mg/kg, extract equivalent to 1.48 mg/kg of rutin, NCA, mean ± SD, n = 5, read-out: Vss): 0.29 ± 0.053 L/kg | Vd ([6]; male, New Zealand White, rabbit, plasma, iv, 0.37 mg/kg, rutin, i.v., pure rutin 0.37 mg/kg, extract equivalent to 1.48 mg/kg of rutin, NCA, mean ± SD, n = 5, read-out: Vz): 0.084 ± 0.028 L/kg | concentration at 6 h ([6]; male, New Zealand White, rabbit, plasma, iv, 0.37 mg/kg, i.v., mean ± SEM, at last quantified time, read-out: rutin plasma level, lower end of quantified range): 105 ± 24 ng/mL | half-life ([6]; male, New Zealand White, rabbit, plasma, iv, rutin, i.v., pure rutin 0.37 mg/kg, extract equivalent to 1.48 mg/kg of rutin, NCA, mean ± SD, n = 5, read-out: t1/2 (terminal half-life) (converted)): 0.79 ± 0.381 h | k el ([6]; male, New Zealand White, rabbit, plasma, iv, rutin, i.v., pure rutin 0.37 mg/kg, extract equivalent to 1.48 mg/kg of rutin, NCA, mean ± SD, n = 5, read-out: λz (converted)): 0.000294 s⁻¹ | MRT [6, 10]: 3.63 ± 0.163 h | clearance [6, 10]: 1.32 mL/min/kg | Cp^0 (plasma concentration at zero time) ([6]; rutin in plasma, i.v., pure rutin 0.37 mg/kg, extract equivalent to 1.48 mg/kg of rutin, NCA, mean ± SD, n = 5): 4960.02 ± 760.234 ng/mL | AUC0–∞/dose [6, 11]: 12.90 ± 2.214 h/L/kg | Cp^0/dose [6, 11]: 13.49 ± 2.068 L⁻¹ kg⁻¹
